Experimental data reported in US9133181B2, “Substituted 6-(4-hydroxy-phenyl)-1H-pyrazolo[3,4-b]pyridine derivatives as kinase inhibitors” (SANOFI, priority 2012, dated 2015).

Target: T1, human full-length recombinant PKC βII (Homo sapiens, UniProt P05771)
T1 construct: Active human full-length recombinant PKC βII; purchased Invitrogen GmbH, Darmstadt, Germany
Assay: Determination of PKC βII inhibition (Caliper mobility shift kinase assay)
Format: biochemical
Conditions: final compound concentration 1.14 μM (±0.15 μM); 60 min incubation at 32° C.
Method in brief: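 Compound was tested at a final 1.14 µM (±0.15 µM), with % inhibition derived from the product/(substrate+product) peak ratio on a Caliper mobility-shift read-out. Full-length PKC βII was activated by CaCl2, PS and DAG in pH 7.4 Hepes/MgCl2. Peptide and ATP were at 3 µM and 120 µM in the added mix. Incubation was 60 min at 32 °C.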

T1 sequence (P05771 1-673 isoform P05771-2): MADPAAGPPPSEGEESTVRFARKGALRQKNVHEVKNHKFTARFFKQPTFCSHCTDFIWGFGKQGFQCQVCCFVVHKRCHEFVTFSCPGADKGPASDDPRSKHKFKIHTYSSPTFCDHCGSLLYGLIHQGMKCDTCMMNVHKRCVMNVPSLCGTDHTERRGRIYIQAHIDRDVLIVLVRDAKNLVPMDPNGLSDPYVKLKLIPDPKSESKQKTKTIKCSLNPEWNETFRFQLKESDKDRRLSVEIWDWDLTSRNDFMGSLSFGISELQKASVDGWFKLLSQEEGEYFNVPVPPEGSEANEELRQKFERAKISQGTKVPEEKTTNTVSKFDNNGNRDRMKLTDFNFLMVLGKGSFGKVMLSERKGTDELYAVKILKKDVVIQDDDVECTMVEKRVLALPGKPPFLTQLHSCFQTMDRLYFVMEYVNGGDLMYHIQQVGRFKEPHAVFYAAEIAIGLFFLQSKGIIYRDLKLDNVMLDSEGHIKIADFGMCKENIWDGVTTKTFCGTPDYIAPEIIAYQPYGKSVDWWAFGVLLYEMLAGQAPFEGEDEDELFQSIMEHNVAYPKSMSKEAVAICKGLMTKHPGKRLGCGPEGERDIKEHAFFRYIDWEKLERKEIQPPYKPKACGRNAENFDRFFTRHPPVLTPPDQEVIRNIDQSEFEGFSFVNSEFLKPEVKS

Q: With COCC(=O)NC1(C)CCCN(Cc2cc(-c3ccc(O)cc3F)nc3[nH]nc(C)c23)C1 (stereo not drawn) [Example 81, N-{1-[6-(2-Fluoro-4-hydroxy-phenyl)-3-methyl-1H-pyrazolo[3,4-b]pyridin-4-ylmethyl]-3-methyl-piperidin-3-yl}-2-methoxy-acetamide] as the compound, how does the inhibition at 1.14 µM read?
A: 97%

Q: COCC(=O)N1CC(C)N(Cc2cc(-c3ccc(O)cc3)nc3[nH]nc(C)c23)CC12CCCC2 (stereo not drawn) [Example 82, 1-{9-[6-(4-Hydroxy-phenyl)-3-methyl-1H-pyrazolo[3,4-b]pyridin-4-ylmethyl]-8-methyl-6,9-diaza-spiro[4.5]dec-6-yl}-2-methoxy-ethanone] was tested. Which inhibition at 1.14 µM did it give?
A: 85%

Q: Cc1n[nH]c2nc(-c3ccc(O)cc3)cc(CN3CC(C)(C)N(CCC(F)(F)F)CC3(C)C)c12 [Example 83, 4-{3-Methyl-4-[2,2,5,5-tetramethyl-4-(3,3,3-trifluoro-propyl)-piperazin-1-ylmethyl]-1H-pyrazolo[3,4-b]pyridin-6-yl}-phenol] was tested. Which inhibition at 1.14 µM did it give?
A: 69%

Q: Cc1n[nH]c2nc(-c3ccc(O)cc3)cc(CN3CC(C)(C)N(C)CC3(C)C)c12 [Example 84, 4-[3-Methyl-4-(2,2,4,5,5-pentamethyl-piperazin-1-ylmethyl)-1H-pyrazolo[3,4-b]pyridin-6-yl]-phenol] was tested. Which inhibition at 1.14 µM did it give?
A: 98%

Q: With CNCCN1CC(C)(C)N(Cc2cc(-c3ccc(O)cc3)nc3[nH]nc(C)c23)CC1(C)C [Example 85, 4-{3-Methyl-4-[2,2,5,5-tetramethyl-4-(2-methylamino-ethyl)-piperazin-1-ylmethyl]-1H-pyrazolo[3,4-b]pyridin-6-yl}-phenol] as the compound, how does the inhibition at 1.14 µM read?
A: 101%

Q: COC(=O)CN1CC(C)(C)N(Cc2cc(-c3ccc(O)cc3)nc3[nH]nc(C)c23)CC1(C)C [Example 86, {4-[6-(4-Hydroxy-phenyl)-3-methyl-1H-pyrazolo[3,4-b]pyridin-4-ylmethyl]-2,2,5,5-tetramethyl-piperazin-1-yl}-acetic acid methyl ester] was tested. Which inhibition at 1.14 µM did it give?
A: 86%

Q: With COC(=O)CNC(=O)N1CC(C)(C)N(Cc2cc(-c3ccc(O)cc3)nc3[nH]nc(C)c23)CC1(C)C [Example 87, ({4-[6-(4-Hyd roxy-phenyl)-3-methyl-1H-pyrazolo[3,4-b]pyridin-4-ylmethyl]-2,2,5,5-tetramethyl-piperazine-1-carbonyl}-amino)-acetic acid methyl ester] as the compound, how does the inhibition at 1.14 µM read?
A: 92%

Q: With CCNC(=O)N1CC(C)(C)N(Cc2cc(-c3ccc(O)cc3)nc3[nH]nc(C)c23)CC1(C)C [Example 88, 4-[6-(4-Hydroxy-phenyl)-3-methyl-1H-pyrazolo[3,4-b]pyridin-4-ylmethyl]-2,2,5,5-tetramethyl-piperazine-1-carboxylic acid ethylamide] as the compound, how does the inhibition at 1.14 µM read?
A: 89%

Q: For CCNC(=O)N1CCCN(Cc2cc(-c3ccc(O)cc3F)nc3[nH]nc(C)c23)CC1C (stereo not drawn) [Example 89, 4-[6-(2-Fluoro-4-hydroxy-phenyl)-3-methyl-1H-pyrazolo[3,4-b]pyridin-4-ylmethyl]-2-methyl-[1,4]diazepane-1-carboxylic acid ethylamide], which inhibition at 1.14 µM is on record?
A: 76%

Q: With COCC(=O)N1CC(C)(C)N(Cc2cc(-c3ccc(O)cc3)nc3[nH]nc(C)c23)CC1(C)C [Example 90, 1-{4-[6-(4-Hydroxy-phenyl)-3-methyl-1H-pyrazolo[3,4-b]pyridin-4-ylmethyl]-2,2,5,5-tetramethyl-piperazin-1-yl}-2-methoxy-ethanone] as the compound, how does the inhibition at 1.14 µM read?
A: 99%

Q: Which inhibition at 1.14 µM does the source give for Cc1n[nH]c2nc(-c3ccc(O)cc3)cc(CN3CCN[C@H](CC(F)(F)F)C3)c12 [Example 91, 4-{3-Methyl-4-[(R)-3-(2,2,2-trifluoro-ethyl)-piperazin-1-ylmethyl]-1H-pyrazolo[3,4-b]pyridin-6-yl}-phenol] here?
A: 81%

Q: How did the inhibition at 1.14 µM turn out when Cc1n[nH]c2nc(-c3ccc(O)cc3)cc(CN3CCNC[C@H]3CC(F)(F)F)c12 [Example 92, 4-{3-Methyl-4-[(R)-2-(2,2,2-trifluoro-ethyl)-piperazin-1-ylmethyl]-1H-pyrazolo[3,4-b]pyridin-6-yl}-phenol] was run?
A: 99%

Q: How did the inhibition at 1.14 µM turn out when CNC1CCN(Cc2cc(-c3ccc(O)cc3)nc3[nH]nc(C)c23)C1 (stereo not drawn) [Example 93, 4-[3-Methyl-4-(3-methylamino-pyrrolidin-1-ylmethyl)-1H-pyrazolo[3,4-b]pyridin-6-yl]-phenol] was run?
A: 81%

Q: How did the inhibition at 1.14 µM turn out when Cc1n[nH]c2nc(-c3ccc(O)cc3)cc(CN(C)C3CCNC3)c12 (stereo not drawn) [Example 94, 4-{3-Methyl-4-[(methyl-pyrrolidin-3-yl-amino)-methyl]-1H-pyrazolo[3,4-b]pyridin-6-yl}-phenol] was run?
A: 92%

Q: Which inhibition at 1.14 µM does the source give for Oc1ccc(-c2cc(CN3CCNCC3)c3c(C4CC4)n[nH]c3n2)cc1 [Example 95, 4-(3-Cyclopropyl-4-piperazin-1-ylmethyl-1H-pyrazolo[3,4-b]pyridin-6-yl)-phenol] here?
A: 53%

Q: For CCc1n[nH]c2nc(-c3ccc(O)cc3)cc(CN3CCNCC3)c12 [Example 96, 4-(3-Ethyl-4-piperazin-1-ylmethyl-1H-pyrazolo[3,4-b]pyridin-6-yl)-phenol], which inhibition at 1.14 µM is on record?
A: 74%

Q: With Cc1n[nH]c2nc(-c3ccc(O)cc3F)cc(C(C)N3CCNCC3)c12 (stereo not drawn) [Example 97, 3-Fluoro-4-[3-methyl-4-(1-piperazin-1-yl-ethyl)-1H-pyrazolo[3,4-b]pyridin-6-yl]-phenol] as the compound, how does the inhibition at 1.14 µM read?
A: 96%

Q: Cc1n[nH]c2nc(-c3ccc(O)cc3F)cc(C(C)N3C[C@@H](C)N[C@@H](C)C3)c12 (stereo partly drawn) [Example 98, 4-{4-[1-((3S,5R)-3,5-Dimethyl-piperazin-1-yl)-ethyl]-3-methyl-1H-pyrazolo[3,4-b]pyridin-6-yl}-3-fluoro-phenol] was tested. Which inhibition at 1.14 µM did it give?
A: 87%

Q: For Cc1n[nH]c2nc(-c3ccc(O)cc3F)cc(CN3C[C@@H](c4ccccc4)NC[C@@H]3C)c12 [Example 99, 3-Fluoro-4-[3-methyl-4-((2S,5R)-2-methyl-5-phenyl-piperazin-1-ylmethyl)-1H-pyrazolo[3,4-b]pyridin-6-yl]-phenol], which inhibition at 1.14 µM is on record?
A: 92%

Q: Cc1n[nH]c2nc(-c3ccc(O)cc3F)cc(CN3C[C@H](c4ccccc4)NC[C@H]3C)c12 [Example 100, 3-Fluoro-4-[3-methyl-4-((2R,5S)-2-methyl-5-phenyl-piperazin-1-ylmethyl)-1H-pyrazolo[3,4-b]pyridin-6-yl]-phenol] was tested. Which inhibition at 1.14 µM did it give?
A: 86%

Q: Cc1n[nH]c2nc(-c3ccc(O)cc3F)cc(CN3CCNC[C@@H]3c3ccc(C(C)C)cc3)c12 [Example 101, 3-Fluoro-4-{4-[(S)-2-(4-isopropyl-phenyl)-piperazin-1-ylmethyl]-3-methyl-1H-pyrazolo[3,4-b]pyridin-6-yl}-phenol] was tested. Which inhibition at 1.14 µM did it give?
A: 52%

Q: For Cc1n[nH]c2nc(-c3ccc(O)cc3F)cc(CN3CCNC[C@H]3c3ccc(C(C)C)cc3)c12 [Example 102, 3-Fluoro-4-{4-[(R)-2-(4-isopropyl-phenyl)-piperazin-1-ylmethyl]-3-methyl-1H-pyrazolo[3,4-b]pyridin-6-yl}-phenol], which inhibition at 1.14 µM is on record?
A: 85%

Q: With Cc1n[nH]c2nc(-c3ccc(O)cc3F)cc(CN3CCNC[C@@H]3c3ccc(C(F)(F)F)cc3)c12 [Example 103, 3-Fluoro-4-{3-methyl-4-[(S)-2-(4-trifluoromethyl-phenyl)-piperazin-1-ylmethyl]-1H-pyrazolo[3,4-b]pyridin-6-yl}-phenol] as the compound, how does the inhibition at 1.14 µM read?
A: 53%

Q: For Cc1n[nH]c2nc(-c3ccc(O)cc3F)cc(CN3CCNC[C@H]3c3ccc(C(F)(F)F)cc3)c12 [Example 104, 3-Fluoro-4-{3-methyl-4-[(R)-2-(4-trifluoromethyl-phenyl)-piperazin-1-ylmethyl]-1H-pyrazolo[3,4-b]pyridin-6-yl}-phenol], which inhibition at 1.14 µM is on record?
A: 83%
